Results on 43 compounds are retold here after patent US7893074B2, “2, 4-pyrimidinediamines useful in the treatment of neoplastic diseases, inflammatory and immune system disorders” (Novartis AG, priority 2003, dated 2011).

In assay [1] the target is Focal Adhesion Kinase (FAK) (Homo sapiens, UniProt Q05397). Put plainly: FAK assay system (Focal Adhesion Kinase inhibition). It is filed as biochemical. The conditions noted are these: read-out: FAK IC50.
Assay [2] has as its system Mouse mammary carcinoma 4T1 cells. Put plainly: Anchorage-independent tumor cell growth assay. The note with it: Mus musculus, 4T1. It counts as cell-based. On the procedure:
Cells are cultured for 2 h and inhibitors are added at various concentrations in a final concentration of 0.1% DMSO. After 48 h, cell growth is assayed with the cell counting kit-8 (Wako Pure Chemical), which uses a water soluble tetrazolium salt WST8. Twenty μL of the reagent is added into each well and cells are further cultured for 2 h. The optical density is measured at 450 nm.

For another assay, the target named is FAK (Mus musculus, UniProt P34152). Kind of assay: Phos IC50 (phosphorylation). It counts as cell-based.

The term IC50 denotes the point on the concentration scale where inhibition reaches its midpoint.

FAK, sequence (P34152 2-1052): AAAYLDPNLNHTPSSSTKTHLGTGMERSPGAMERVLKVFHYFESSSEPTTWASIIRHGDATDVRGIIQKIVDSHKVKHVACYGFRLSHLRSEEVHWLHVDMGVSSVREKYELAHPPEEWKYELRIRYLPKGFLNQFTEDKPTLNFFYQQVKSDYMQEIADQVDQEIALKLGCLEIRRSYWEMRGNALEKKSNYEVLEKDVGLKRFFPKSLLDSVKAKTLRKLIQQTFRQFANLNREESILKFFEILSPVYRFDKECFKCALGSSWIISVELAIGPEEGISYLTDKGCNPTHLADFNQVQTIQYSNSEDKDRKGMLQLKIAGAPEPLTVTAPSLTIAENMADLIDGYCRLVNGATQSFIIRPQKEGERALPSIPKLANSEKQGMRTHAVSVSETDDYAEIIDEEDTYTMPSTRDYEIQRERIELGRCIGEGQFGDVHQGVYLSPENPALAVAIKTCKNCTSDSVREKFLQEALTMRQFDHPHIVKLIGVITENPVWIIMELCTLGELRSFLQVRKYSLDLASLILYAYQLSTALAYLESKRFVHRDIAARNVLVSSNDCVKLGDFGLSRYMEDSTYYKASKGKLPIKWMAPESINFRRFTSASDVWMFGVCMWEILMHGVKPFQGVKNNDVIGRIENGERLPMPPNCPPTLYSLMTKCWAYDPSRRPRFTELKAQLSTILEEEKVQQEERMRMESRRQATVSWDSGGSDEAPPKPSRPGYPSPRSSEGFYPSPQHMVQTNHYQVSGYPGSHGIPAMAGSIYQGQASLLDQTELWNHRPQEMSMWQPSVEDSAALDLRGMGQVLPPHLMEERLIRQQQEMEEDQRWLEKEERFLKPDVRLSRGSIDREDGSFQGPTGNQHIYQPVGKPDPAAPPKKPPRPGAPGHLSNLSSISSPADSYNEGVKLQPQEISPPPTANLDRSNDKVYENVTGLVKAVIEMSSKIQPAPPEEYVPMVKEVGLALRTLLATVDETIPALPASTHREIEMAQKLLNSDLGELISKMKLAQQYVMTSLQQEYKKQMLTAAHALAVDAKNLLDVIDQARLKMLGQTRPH
Focal Adhesion Kinase (FAK), sequence (Q05397 384-706): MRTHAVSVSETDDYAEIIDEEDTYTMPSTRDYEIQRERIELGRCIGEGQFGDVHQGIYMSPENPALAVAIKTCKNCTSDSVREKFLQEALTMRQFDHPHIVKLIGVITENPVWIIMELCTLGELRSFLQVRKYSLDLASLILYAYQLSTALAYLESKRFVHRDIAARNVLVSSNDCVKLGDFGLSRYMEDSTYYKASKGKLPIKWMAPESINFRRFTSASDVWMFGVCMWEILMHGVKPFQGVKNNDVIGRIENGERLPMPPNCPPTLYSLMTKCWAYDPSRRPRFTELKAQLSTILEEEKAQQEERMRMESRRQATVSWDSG

With `COc1cc(OC)c(OC)cc1Nc1ncc(Cl)c(Nc2ccccc2S(=O)(=O)C(C)C)n1` [Example 28-30], the IC50 was 2.3 nM in assay [1], 110 nM in assay [2] and 900 nM against FAK.

For `CNS(=O)(=O)c1ccccc1Nc1nc(Nc2cc(C(C)C)ccc2C)ncc1Br` [Example 3-18], the half-inhibitory concentration (IC50) was 130 nM in assay [1], 9000 nM in assay [2] and 1500 nM against FAK.

Take `CNS(=O)(=O)c1ccccc1Nc1nc(Nc2cc(OCCN3CCN(C)CC3)ccc2OC)ncc1Cl` [Example 20-22]: the IC50 in assay [1] is 8 nM; in assay [2], 190 nM; against FAK, above 10000 nM.

Take `CNC(=O)c1cc(N2CCCC2)ccc1Nc1nc(Nc2ccc(OC3CCN(C)CC3)cc2OC)ncc1Cl` [Example 15-2]: the IC50 in assay [1] was 21 nM; in assay [2] it was 660 nM; at FAK it was above 10000 nM.

Regarding `CNS(=O)(=O)c1ccccc1Nc1nc(Nc2cccc3c2CCCC3)ncc1Br` [Example 3-31], the concentration for half-maximal inhibition (IC50) is 13 nM in assay [1], 5000 nM in assay [2] and 1100 nM at FAK.

Turning to `CNS(=O)(=O)c1ccccc1Nc1nc(Nc2cc(OCCN3CCOCC3)ccc2OC)ncc1Cl` [Example 20-21], the IC50 amounted to 26 nM in assay [1], 680 nM in assay [2] and 3000 nM at FAK.

`CCS(=O)(=O)c1ccccc1Nc1nc(Nc2ccc(N3CCN(C(C)=O)CC3)cc2OC)ncc1Cl` [Example 27-5]: the IC50 came to 8.2 nM in assay [1], 300 nM in assay [2] and 40 nM against FAK.

Take `CNC(=O)c1ccccc1Nc1nc(Nc2ccc(OCCN3CCN(C)CC3)cc2OC)ncc1Cl` [Example 7-21]: the IC50 in assay [1] is 3.3 nM; in assay [2] it was 460 nM; at FAK, above 10000 nM.

As for `COc1cc(N2CCOCC2)ccc1Nc1ncc(Cl)c(Nc2ccccc2S(=O)(=O)C2CC2)n1` [Example 30-1], the half-inhibitory concentration (IC50) in assay [1] was 22 nM; in assay [2] it was 890 nM; at FAK, 200 nM.

For the compound `COc1cc(N2CCOCC2)ccc1Nc1ncc(Cl)c(Nc2ccccc2S(=O)(=O)Cc2ccccc2)n1` [Example 34-5], the IC50 in assay [1] is 51 nM; in assay [2], 5100 nM; against FAK, 360 nM.

On to `CCS(=O)(=O)c1ccccc1Nc1nc(Nc2ccc(-n3cncn3)cc2OC)ncc1Cl` [Example 27-3], for which the IC50 was 6.3 nM in assay [1], 560 nM in assay [2] and above 10000 nM at FAK.

For the compound `COc1cc(F)ccc1Nc1ncc(Cl)c(Nc2ccccc2S(C)(=O)=O)n1` [Example 31-1], the IC50 in assay [1] is 30 nM; in assay [2] it was 1600 nM; on FAK it was above 10000 nM.

Consider `CNC(=O)c1ccccc1Nc1nc(Nc2ccc(OCC3CCN(C)CC3)cc2OC)ncc1Cl` [Example 7-20], for which the IC50 in assay [1] is 2.5 nM; in assay [2], 110 nM; at FAK, above 10000 nM.

With `CNS(=O)(=O)c1ccccc1Nc1nc(Nc2cc(-c3ccccc3)ccc2OC)ncc1Br` [Example 3-9], the 50% inhibitory concentration (IC50) turned out to be 48 nM in assay [1], 700 nM in assay [2] and 500 nM against FAK.

Take `NS(=O)(=O)c1ccccc1Nc1nc(Nc2cccc3c2OC(F)(F)O3)ncc1Br` [Compound 6, 2-[5-Bromo-2-(2,3-[difluoromethylenedioxy]phenylamino)-pyrimidin-4-ylamino]-benzenesulfonamide]: the 50% inhibitory concentration (IC50) in assay [1] was 110 nM; in assay [2], 5000 nM; at FAK, 350 nM.

In the case of `CNS(=O)(=O)c1ccccc1Nc1nc(Nc2ccccc2OC)ncc1Br` [Example 3-6], the results for the IC50 (in assay [1]; in assay [2]; on FAK) were 13 nM, 2000 nM and 110 nM, respectively.

As for `COc1c(Nc2ncc(Cl)c(Nc3ccccc3S(=O)(=O)NC(C)C)n2)ccc(N2CCOCC2)c1F` [Example 19-11], the results for the IC50 (in assay [1]; in assay [2]; against FAK) were 38 nM, 2000 nM and above 10000 nM, respectively.

For `COc1cc(F)ccc1Nc1ncc(Cl)c(Nc2ccccc2S(=O)(=O)NCC(C)C)n1` [Example 22-2], the IC50 was found to be 26 nM in assay [1], 3000 nM in assay [2] and 1000 nM against FAK.

As for `CNS(=O)(=O)c1ccccc1Nc1nc(Nc2cc(F)ccc2F)ncc1Br` [Example 3-77], the IC50 in assay [1] is 65 nM; in assay [2], 3000 nM; against FAK, above 10000 nM.

On to `CNS(=O)(=O)c1ccccc1Nc1nc(Nc2cc(OC)ccc2OC)ncc1[N+](=O)[O-]` [Example 1, 2-[2-(2,5-Dimethoxy-phenylamino)-5-nitro-pyrimidin-4-ylamino]-N-methyl-benzenesulfonamide], for which the IC50 in assay [1] is 140 nM; in assay [2] it was above 10000 nM; against FAK, 700 nM.

As to `COc1cc(OCC2CCCCN2C)ccc1Nc1ncc(Cl)c(Nc2ccccc2S(=O)(=O)NC(C)C)n1` (stereo not drawn) [Example 19-17], the IC50 is 1 nM in assay [1], 170 nM in assay [2] and above 10000 nM on FAK.

Consider `COc1cc(N2CCN(C(C)=O)CC2)ccc1Nc1ncc(Cl)c(Nc2ccccc2S(=O)(=O)C2CCCC2)n1` [Example 33-1], for which the IC50 in assay [1] stood at 2.5 nM; in assay [2] it was 250 nM; at FAK, 80 nM.

With `CNC(=O)c1ccccc1Nc1nc(Nc2cccc3[nH]ccc23)ncc1Cl` [Example 7-27], the IC50 is 21 nM in assay [1], 220 nM in assay [2] and 500 nM against FAK.

On to `COc1cc(N2CCC(OC)CC2)ccc1Nc1ncc(Cl)c(Nc2ccccc2S(=O)(=O)C(C)C)n1` [Example 28-18], for which the results for the 50% inhibitory concentration (IC50) (in assay [1]; in assay [2]; on FAK) were 9.1 nM, 2030 nM and above 10000 nM, respectively.

On to `COc1cc(N2CCC(N3CCNCC3)CC2)ccc1Nc1ncc(Cl)c(Nc2ccccc2S(=O)(=O)C(C)C)n1` [Example 28-25], for which the figures for the IC50 (in assay [1]; in assay [2]; on FAK) were 3.9 nM, 130 nM and 40 nM, respectively.

In the case of `CNS(=O)(=O)c1ccccc1Nc1nc(Nc2cc(N3CCN(C)CC3)ccc2OC)ncc1Br` [Example 3-84], the IC50 is 10 nM in assay [1], 80 nM in assay [2] and 1000 nM against FAK.

Turning to `CCCS(=O)(=O)c1ccccc1Nc1nc(Nc2ccc(F)cc2OC)ncc1Cl` [Example 26-30], the IC50 in assay [1] turned out to be 4.4 nM; in assay [2], 760 nM; on FAK it was 1000 nM.

As for `CCS(=O)(=O)c1ccccc1Nc1nc(Nc2ccc(N3CCC(N4CCN(C)CC4)CC3)cc2OC)ncc1Cl` [Example 27-9], the IC50 in assay [1] was found to be 4.2 nM; in assay [2] it was 360 nM; against FAK, 500 nM.

With `CNC(=O)c1ccccc1Nc1nc(Nc2ccc(F)cc2OC)ncc1Br` [Example 8-4], the IC50 is 8 nM in assay [1], 1100 nM in assay [2] and above 10000 nM against FAK.

For the compound `CC(C)S(=O)(=O)c1ccccc1Nc1nc(Nc2cccc3c2OCC3)ncc1Cl` [Example 28-31], the IC50 was found to be 7.4 nM in assay [1], 1060 nM in assay [2] and 60 nM at FAK.

`COc1cc(N2CCOCC2)ccc1Nc1ncc(Cl)c(Nc2ccccc2S(=O)(=O)CCC(C)C)n1` [Example 34-4]: the concentration for half-maximal inhibition (IC50) in assay [1] is 13 nM; in assay [2] it was 1220 nM; at FAK it was above 10000 nM.

Consider `CNC(=O)c1cc(N2CCN(C)CC2)ccc1Nc1nc(Nc2cccc3c2ccn3C)ncc1Cl` [Example 35-2], for which the IC50 came out at 6.1 nM in assay [1], 230 nM in assay [2] and 700 nM on FAK.

With `CNC(=O)c1ccccc1Nc1nc(Nc2ccc(N3CCC(O)CC3)cc2OC)ncc1Cl` [Example 7-8], the IC50 was determined as 8.7 nM in assay [1], 1000 nM in assay [2] and 800 nM on FAK.

As to `CNC(=O)c1cc(N2CCOCC2)ccc1Nc1nc(Nc2ccc(F)cc2OC)ncc1Cl` [Example 16-1], the IC50 is 44 nM in assay [1], 4000 nM in assay [2] and above 10000 nM on FAK.

`COc1cc(-n2cncn2)ccc1Nc1ncc(Cl)c(Nc2ccccc2S(=O)(=O)C(C)C)n1` [Example 28-4]: the IC50 was determined as 7.5 nM in assay [1], 300 nM in assay [2] and 300 nM on FAK.

Regarding `CCCS(=O)(=O)c1ccccc1Nc1nc(Nc2ccc(N3CCN(C(=O)C(C)C)CC3)cc2OC)ncc1Cl` [Example 26-9], the IC50 stood at 2.3 nM in assay [1], 220 nM in assay [2] and 40 nM at FAK.

On to `COc1cc(N2CCN3CCOC[C@H]3C2)ccc1Nc1ncc(Cl)c(Nc2ccccc2S(=O)(=O)NC(C)C)n1` [Example 19-31], for which the IC50 in assay [1] came to 1.8 nM; in assay [2] it was 380 nM; against FAK it was 400 nM.

In the case of `CCCS(=O)(=O)c1ccccc1Nc1nc(Nc2ccc(N3CCC(N4CCCC4)CC3)cc2OC)ncc1Cl` [Example 26-29], the IC50 in assay [1] is below 1 nM; in assay [2] it was 260 nM; on FAK, 310 nM.

For `CNS(=O)(=O)c1ccccc1Nc1nc(Nc2ccc(N3CCNCC3)cc2OC)ncc1Br` [Example 3-47], the IC50 amounted to 1 nM in assay [1], 60 nM in assay [2] and 100 nM against FAK.

Regarding `COc1cc(N2CCC(N3CCCCC3)CC2)ccc1Nc1ncc(Cl)c(Nc2ccccc2S(=O)(=O)C(C)C)n1` [Example 28-8], the half-inhibitory concentration (IC50) in assay [1] was 4.6 nM; in assay [2], 370 nM; at FAK, 400 nM.

As for `COc1cc(N2CCOCC2)ccc1Nc1ncc(Cl)c(Nc2ccccc2S(=O)(=O)C2CCCCC2)n1` [Example 34-2], the results for the 50% inhibitory concentration (IC50) (in assay [1]; in assay [2]; at FAK) were 11 nM, 1170 nM and 80 nM, respectively.

Consider `CNS(=O)(=O)c1ccccc1Nc1nc(Nc2cc(C(=O)N3CCNCC3)ccc2C)ncc1Br` [Example 3-24], for which the IC50 stood at 64 nM in assay [1], 5000 nM in assay [2] and 3500 nM on FAK.

Take `CNS(=O)(=O)c1ccccc1Nc1nc(Nc2ccc(OCCCN3CCN(C)CC3)cc2OC)ncc1Br` [Example 3-72]: the IC50 turned out to be 2.1 nM in assay [1], 60 nM in assay [2] and 110 nM against FAK.
